The results in this text go back to US4681871A, “Pharmacologically active peptides” (priority 1979, dated 1987).

Series [1] deals with longitudinal muscle plexusmyentericus preparation of guinea pig ileum. Description: opiate-like activity on electrically stimulated guinea pig ileum preparation. The class given is cell-based. The conditions noted are these: guinea pig intestine preparation; naloxon-reversible restriction of contractions.
The test system of series [2] is Pronase E (Merck). Description: resistance against proteases (Pronase E incubation, then opiate test). The class given is in vitro ADME. The following applies: 0.02 mg Pronase E, tris-buffer pH 8, 37° C., 1 to 4 hours; compared with control without enzyme. The protocol:
As proof of the resistance against proteases we would like to cite an example: 0.3 mg β-casomorphin-7 was incubated in 0.6 ml tris-buffer pH 8 with 0.02 mg Pronase E (Merck) at 37° C. for 1 to 4 hours. After the end of the incubation, the mixture, for the purpose of destroying the Pronase, was heated at 95° C. for 15 minutes.

Ends that are not written are not given here. Peptide text beside a SMILES is read from it.

As for `COC(=O)CNC(=O)[C@@H]1CCCN1C(=O)[C@H](Cc1ccccc1)NC(=O)[C@@H]1CCCN1C(=O)[C@@H](N)Cc1ccc(O)cc1` [Tyr-Pro-Phe-Pro-Gly-methyl ester] (H-YPFPG-OMe), the opiate-like activity entry in series [1] was “strong specific opiate-like activity”.

In the case of “YPFPGPI [β-casomorphin-7, Tyr-Pro-Phe-Pro-Gly-Pro-Ile]”, the “loss of opiate activity after protease incubation” value in series [2] is “did not result in any loss of opiate activity”. The same measure, in the same setting: then “methionine-enkephalin [reference compound]”, with “completely lost the opiate activity”.

Turning to `COC(=O)CNC(=O)[C@@H]1CCCN1C(=O)[C@H](Cc1ccccc1)NC(=O)[C@@H]1CCCN1` [end product 4b, Pro-Phe-Pro-Gly-metester] (H-PFPG-OMe), in series [1], the opiate-like activity entry is reported as “did not result in any opiate-like activity”. On the same count and under the same terms, then casein, with “neither the casein itself nor its chloroform/methanol (65/35, vol/vol) extracts, shows a pharmacological, in this case an opiate-like, activity”.
